Patent US8575165B2, “Methods for treating inflammatory disorders using 2,4-pyrimidinediamine compounds” (Rigel Pharmaceuticals, Inc., priority 2009, dated 2013)

Columns and labels:
IL-23 = experiment: In vitro IL-23 assay: IL-23 (p19/p40) ELISA of supernatant from IFNγ-primed THP-1 cells stimulated with SAC; format: cell-based, human; parameters: key: “+” indicates an increase in production; “−” indicates a decrease in production; details: effect on expression level of IL-23 in THP-1 cells primed with IFNγ and stimulated with 0.01% SAC; test compound 0.01 μM to 20 μM
Experimental: (§1) Exponentially growing THP-1 cells were plated (100K/well in 100 μL) in standard RPMI media (1% P/S+10% FBS) containing 50 ng/mL IFNγ (1000 U/mL) onto a white clear bottom 96 well plate and leave the cells in 37° C. incubator for 24 h.
(§2) After 24 h incubation, 100 μL of RPMI media containing 2× concentrated test compound per well was added to the above cell-culture media (final concentration of test compound was from 0.01 μM to 20 μM). The plates were pre-incubated for 1 h at 37° C. before being stimulated with SAC.
(§3) After 1 h compound pre-incubation, 10 μL per well of 20× concentrated SAC solution in RPMI media was added to give a final concentration of 0.01%, the plates were shaken and incubated at 37° C. for an additional 18 h.
(§4) 155 μL of the supernatant was harvested from each well and to the remaining 50 μL/well of the cell culture plate was added 50 μL of CELL TITER GLO® reagent. The plates were incubated for 1-2 minutes on a shaker and read for luminescence intensity to determine the compound cytotoxicity.
(§5) The cell culture supernatant collected above was used to carry out IL23 ELISA (65 μL-Supernatant) and IL10 ELISA (90 μL-Supernatant) as described below.
B. Human IL-23 (p19/p40) ELISA Protocol (e-Biosciences)
Cell Culture Supernatant (65 μL from THP-1 cells primed with IFNγ (50 ng/mL-1000 U/mL) and stimulated with 0.01% SAC)
To 10.5 mL PBS was added 50 μL of anti-IL23 (p19) capture antibody (2.5 μg/mL), mixed well and 100 μL of the coating solution was added to each well of the 96 well white plates from Pierce, cover and incubate overnight at 4° C.
The anti-IL23 (p19)-antibody-coated plates were washed 2× using TBST (use plate washer) and the plates were blocked using 200 μL of 0.5% Casein for 1.5-2 h at room temperature with shaking.
The plates were washed 2× using TBST and the supernatant (65 μL/well) was transferred to the above pre-blocked/IL23(p19)-antibody-coated 96 well plate and incubated at RT for 1.5 h with shaking.
The plate was washed 4× using TBST (plate washer) and 100 μL/well of detection antibody solution was added. The detection antibody solution was prepared from 2 μL of biotin labeled anti-IL-12 (p40/p70) antibody in 11 mL 1% BSA/PBS solution (1-5000 dilution). The plates were incubated for 1 hour with shaking at RT.
(§6) Again, the plate was washed 4× with TBST and 100 μL of HRP labeled Streptavidin (R&D Systems) solution (10 μL/10 mL 1% BSA solution) was added and incubated at RT for another 45 min with shaking.
After 45 min, the plate was washed with TBST 4× and 100 μL/well Super Signal ELISA Pico Chemiluminescent Substrate from Pierce (3.5 mL A+3.5 mL B+3.5 mL MQ water) was added, the plate was shaken for 1-2 minutes then read on a plate reader to quantify the amount of IL-23 secreted by the cells.

IL-10 = experiment: In vitro IL-10 assay: IL-10 ELISA of supernatant from IFNγ-primed THP-1 cells stimulated with SAC; format: cell-based, human; parameters: key: “+” indicates an increase in production; “−” indicates a decrease in production; details: effect on expression level of IL-10 in THP-1 cells primed with IFNγ and stimulated with 0.01% SAC; test compound 0.01 μM to 20 μM
Experimental: as §1, §2, §3, §4, §5
C. Human IL-10 ELISA Protocol (e-Biosciences)
Cell Culture Supernatant (90 μL from THP-1 cells primed with IFNγ (50 ng/mL-1000 U/mL) and stimulated with 0.01% SAC)
To 10.5 mL PBS was added 50 μL of anti-IL10 capture antibody (2.5 μg/mL), mixed well and 100 μL of the coating solution was added to each well of the 96 well white plates from Pierce. The plates were covered and incubated overnight at 4° C.
The anti-IL10 antibody-coated plates were washed 2× using TBST (use plate washer) and blocked the using 200 μL of 0.5% Casein for 1.5-2 h at RT with shaking.
The plates were washed 2× using TBST and the supernatant (100 μL/well) was transferred to the above pre-blocked/IL10-antibody-coated 96 well plate and incubated at RT for 1.5 h with shaking.
The plate was washed 4× using TBST (plate washer) and 100 μL/well detection antibody solution prepared from 2 μL of biotin labeled anti-IL-10 antibody in 11 mL 1% BSA/PBS solution (1-5000 dilution) was added. The plates were incubated for 1 hour with shaking at RT.
as §6
After 45 min, the plate was washed with TBST 4× and 100 uL/well Super Signal ELISA Pico Chemiluminescent Substrate from Pierce (3.5 mL A+3.5 mL B+3.5 mL MQ water) was added, the plate was shaken for 1-2 minutes then read on a plate reader to quantify the amount of IL-10 secreted by the cells.

With `CN1C(C)(C)CC(Nc2nc(Nc3ccc(N4CCN(S(C)(=O)=O)CC4)c(C(F)(F)F)c3)ncc2F)CC1(C)C` [Compound 1] the IL-23 (IL-23) was “−”.
With `CN1CCN(c2ccc(Nc3ncc(F)c(NC4CC(C)(C)N(C)C(C)(C)C4)n3)cc2C(F)(F)F)CC1` [Compound 2] the IL-10 (IL-10) was “−” and the IL-23 (IL-23) was “−”.
With `CN1C(C)(C)CC(Nc2nc(Nc3ccc(N4CCN(S(C)(=O)=O)CC4)c(C(F)(F)F)c3)ncc2F)C1(C)C` (centres unmarked) [Compound 3] the IL-10 (IL-10) was “+” and the IL-23 (IL-23) was “−”.
`CN1CCN(c2ccc(Nc3ncc(F)c(NC4CC(C)(C)N(C)C4(C)C)n3)cc2C(F)(F)F)CC1` (centres unmarked) [Compound 4] was tested, and the IL-10 (IL-10) was “−” and the IL-23 (IL-23) was “−”.
With `CN1C(C)(C)CC(Nc2nc(Nc3ccc(N4CCN(S(C)(=O)=O)CC4)c(Cl)c3)ncc2F)CC1(C)C` [Compound 5] the IL-10 (IL-10) was “+”.
In the case of `CN1CCN(c2ccc(Nc3ncc(F)c(NC4CC(C)(C)N(C)C(C)(C)C4)n3)cc2Cl)CC1` [Compound 6], the IL-10 (IL-10) is reported as “+”.
For `CN1C(C)(C)CC(CNc2nc(Nc3ccc(N4CCN(S(C)(=O)=O)CC4)c(C(F)(F)F)c3)ncc2F)C1(C)C` (centres unmarked) [Compound 7], the IL-10 (IL-10) was “+” and the IL-23 (IL-23) was “−”.
With `CN1CCN(S(=O)(=O)c2ccc(Nc3ncc(F)c(NC4CC(C)(C)N(C)C(C)(C)C4)n3)cc2Cl)CC1` [Compound 8] the IL-10 (IL-10) was “+” and the IL-23 (IL-23) was “−”.
For `CN1C(C)(C)CC(Nc2nc(Nc3ccc(S(=O)(=O)N4CCNCC4)c(Cl)c3)ncc2F)CC1(C)C` [Compound 9], the IL-10 (IL-10) was “+”.
With `CN1C(C)(C)CC(Nc2nc(Nc3ccc(N4CCN(S(C)(=O)=O)CC4)c(C(F)(F)F)c3)ncc2F)CC1(C)C` [Compound 10] the IL-10 (IL-10) was “+”.
For `CN1C(C)(C)CC(Nc2nc(Nc3ccc(N4CCN(S(=O)(=O)C5CC5)CC4)c(C(F)(F)F)c3)ncc2F)CC1(C)C` [Compound 11], the IL-10 (IL-10) was “+”.
For `CN1C(C)(C)CC(Nc2nc(Nc3ccc(N4CCN(S(C)(=O)=O)CC4)c(C#N)c3)ncc2F)CC1(C)C` [Compound 12], the IL-10 (IL-10) was “+”.
In the case of `CN1C(C)(C)CC(Nc2nc(Nc3ccc(N4CCN(S(C)(=O)=O)CC4)c(OC(F)F)c3)ncc2F)CC1(C)C` [Compound 13], the IL-10 (IL-10) is reported as “+”.
For `COc1ccc(Nc2ncc(F)c(NC3CC(C)(C)N(C)C(C)(C)C3)n2)cc1OC(F)F` [Compound 14], the IL-10 (IL-10) was “+”.
`CN1C(C)(C)CC(Nc2nc(Nc3ccc(N4CCN(S(=O)(=O)C5CC5)CC4)c(Cl)c3)ncc2F)CC1(C)C` [Compound 15] was tested, and the IL-10 (IL-10) was “+”.
With `CCN1C(=O)C(F)(F)Oc2cc(Nc3ncc(F)c(NC4CC(C)(C)N(C)C(C)(C)C4)n3)ccc21` [Compound 16] the IL-10 (IL-10) was “+”.
In the case of `CN1CCN(c2ccc(Nc3ncc(F)c(NC4CC(C)(C)N(C)C(C)(C)C4)n3)cc2Cl)CC1` [Compound 17], the IL-10 (IL-10) is reported as “−”.
For `CCOC(=O)c1cnc(Nc2ccc(N3CCN(S(C)(=O)=O)CC3)c(C(F)(F)F)c2)nc1NC1CC(C)(C)N(C)C(C)(C)C1` [Compound 18], the IL-10 (IL-10) was “+” and the IL-23 (IL-23) was “−”.
In the case of `CCOC(=O)c1cnc(Nc2ccc(N3CCN(S(C)(=O)=O)CC3)c(Cl)c2)nc1NC1CC(C)(C)N(C)C(C)(C)C1` [Compound 19], the IL-10 (IL-10) is reported as “+” and the IL-23 (IL-23) is reported as “−”.
For `CN1C(C)(C)CC(Nc2nc(Nc3ccc(N4CCN(S(C)(=O)=O)CC4)c(C(F)(F)F)c3)ncc2[N+](=O)[O-])CC1(C)C` [Compound 20], the IL-10 (IL-10) was “+”.
In the case of `CN1C(C)(C)CC(Nc2nc(Nc3ccc(N4CCN(S(C)(=O)=O)CC4)c(Cl)c3)ncc2[N+](=O)[O-])CC1(C)C` [Compound 21], the IL-10 (IL-10) is reported as “+”.
`CN1C(C)(C)CC(Nc2nc(Nc3ccc(N4CCN(S(C)(=O)=O)CC4)c(C(F)(F)F)c3)ncc2C#N)CC1(C)C` [Compound 22] was tested, and the IL-10 (IL-10) was “+”.
`CN1C(C)(C)CC(Nc2nc(Nc3ccc(N4CCN(S(C)(=O)=O)CC4)c(Cl)c3)ncc2C#N)CC1(C)C` [Compound 23] was tested, and the IL-10 (IL-10) was “+” and the IL-23 (IL-23) was “−”.
For `CN1C(C)(C)CC(Nc2nc(Nc3ccc(N4CCN(S(C)(=O)=O)CC4)c(C#N)c3)ncc2C#N)CC1(C)C` [Compound 24], the IL-10 (IL-10) was “+”.
`CN1C(C)(C)CC(Nc2nc(Nc3ccc(N4CCN(S(C)(=O)=O)CC4)c(C(F)(F)F)c3)ncc2C(F)(F)F)CC1(C)C` [Compound 25] was tested, and the IL-10 (IL-10) was “+” and the IL-23 (IL-23) was “−”.
With `CN1C(C)(C)CC(Nc2nc(Nc3ccc(N4CCN(S(C)(=O)=O)CC4)c(Cl)c3)ncc2C(F)(F)F)CC1(C)C` [Compound 26] the IL-10 (IL-10) was “+”.
